Values joined by “and” are separate entries in the source; they are usually repeats but may differ in a detail not shown here. Identical values can stand only once. Counter-ions that a name gives are not always drawn.
Assays:
[1] = system: 5-HT in rat and mouse PFC; settings: cited from earlier work
SERT [2] = biological target: T1, SERT (Homo sapiens, UniProt P31645); settings: cited from earlier work
neuronal receptors = settings: binding affinity study; cited from earlier work
5-HT1B [3] = settings: viloxazine 10 µM
5-HT2A [4] = biological target: T2, 5-HT2A (Homo sapiens, UniProt P28223); settings: concentrations up to 300 µM
5-HT7 [5] = biological target: T3, 5-HT7 (Homo sapiens, UniProt P34969); settings: concentrations up to 100 µM
5-HT1A = 5-HT1A (Homo sapiens, UniProt P08908)
5-HT1B [6] = biological target: 5-HT1B (Homo sapiens, UniProt P28222)
5-HT1D = 5-HT1D (Rattus norvegicus, UniProt P28565)
5-HT6 = 5-HT6 (Homo sapiens, UniProt P50406)
ADRα1A = ADRα1A (Homo sapiens, UniProt P35348)
ADRα2A = ADRα2A (Homo sapiens, UniProt P08913)
ADRα2B = ADRα2B (Homo sapiens, UniProt P18089)
ADRα2C = ADRα2C (Homo sapiens, UniProt P18825)
ADRβ1 = ADRβ1 (Homo sapiens, UniProt P08588)
dopaminergic receptor D1 = dopaminergic receptor D1 (Homo sapiens, UniProt P21728)
[7] = biological target: dopaminergic receptor D2S (Homo sapiens, UniProt P14416)
dopaminergic receptor D3 = dopaminergic receptor D3 (Homo sapiens, UniProt P35462)
histaminic receptor H1 = histaminic receptor H1 (Homo sapiens, UniProt P35367)
[8] = biological target: cholinergic muscarinic receptor M1 (Homo sapiens, UniProt P11229)
[9] = biological target: cholinergic muscarinic receptor M3 (Homo sapiens, UniProt P20309)
[10] = biological target: cholinergic muscarinic receptor M4 (Homo sapiens, UniProt P08173)
[11] = system: extracellular neurotransmitter levels in the PFC, Acb, and Amg; settings: viloxazine 50 mg/kg IP, compared to baseline or vehicle
5-HT2B [12] = settings: at all concentrations, clinical doses of 100, 200, 400, and 600 mg/day
5-HT2C [13] = settings: at all concentrations except at 100 mg/day dose
5-HT2C [14] = biological target: T4, 5-HT2C (Homo sapiens, UniProt P28335); assay: cell-based; settings: CHO, read-out: Emax, agonistic activity towards 5-HT2C
5-HT2B [15] = biological target: T5, 5-HT2B (Homo sapiens, UniProt P41595); assay: cell-based
5-HT2A [16] = biological target: T2, 5-HT2A; assay: cell-based
5-HT7 [17] = biological target: T3, 5-HT7; assay: cell-based; settings: read-out: antagonistic activity at 5-HT7, inhibition
ADRβ2 = ADRβ2 (Homo sapiens, UniProt P07550); assay: cell-based
ADRα1B = ADRα1B (Homo sapiens, UniProt P35368); assay: cell-based
5-HT2C [18] = biological target: T4, 5-HT2C; assay: biochemical; settings: read-out: percent inhibition of the binding of a radiolabeled ligand
NET [19] = biological target: NET (Rattus norvegicus, UniProt Q63380); assay: biochemical; settings: IC50, inhibition of [3H]-NE uptake (NET), rat hypothalamic synaptosomes
[20] = biological target: monoamine oxidase A (MAO-A) (Rattus norvegicus, UniProt P21396); assay: Cerep Bioprint panel assay: MAO-A; settings: read-out: percent inhibition (activity towards MAO-A)
DA receptor D1 = DA receptor D1 (Homo sapiens, UniProt P21728); assay: Cerep Bioprint radioligand binding assay: D1; settings: read-out: percent inhibition of the binding of a radiolabeled ligand
DA receptor D3 = DA receptor D3 (Homo sapiens, UniProt P35462); assay: Cerep Bioprint radioligand binding assay: D3; settings: read-out: percent inhibition of the binding of a radiolabeled ligand
His receptor H1 = His receptor H1 (Homo sapiens, UniProt P35367); assay: Cerep Bioprint radioligand binding assay: H1; settings: read-out: percent inhibition of the binding of a radiolabeled ligand
His receptor H2 = His receptor H2 (Homo sapiens, UniProt P25021); assay: Cerep Bioprint radioligand binding assay: H2; settings: read-out: percent inhibition of the binding of a radiolabeled ligand
[21] = biological target: muscarinic cholinergic receptor M1 (Homo sapiens, UniProt P11229); assay: Cerep Bioprint radioligand binding assay: M1; settings: read-out: percent inhibition of the binding of a radiolabeled ligand
[22] = biological target: muscarinic cholinergic receptor M2 (Homo sapiens, UniProt P08172); assay: Cerep Bioprint radioligand binding assay: M2; settings: read-out: percent inhibition of the binding of a radiolabeled ligand
[23] = biological target: muscarinic cholinergic receptor M3 (Homo sapiens, UniProt P20309); assay: Cerep Bioprint radioligand binding assay: M3; settings: read-out: percent inhibition of the binding of a radiolabeled ligand
[24] = biological target: muscarinic cholinergic receptor M4 (Homo sapiens, UniProt P08173); assay: Cerep Bioprint radioligand binding assay: M4; settings: read-out: percent inhibition of the binding of a radiolabeled ligand
NET [25] = biological target: NET (Homo sapiens, UniProt P23975); assay: Cerep Bioprint radioligand binding assay: NET; settings: read-out: percent inhibition of the binding of a radiolabeled ligand
DA receptor D2S = DA receptor D2S (Homo sapiens, UniProt P14416); assay: Cerep Bioprint radioligand binding assay: D2S; settings: read-out: percent inhibition of the binding of a radiolabeled ligand
DAT = DAT (Homo sapiens, UniProt Q01959); assay: Cerep Bioprint radioligand binding assay: DAT; settings: read-out: percent inhibition (activity towards DAT)
GABA transporter (GAT) = assay: Cerep Bioprint radioligand binding assay: GAT; settings: viloxazine 10 µM
SERT [26] = biological target: T1, SERT; assay: Cerep Bioprint radioligand binding assay: SERT; settings: viloxazine 10 µM
5-HT7 [27] = biological target: T3, 5-HT7; assay: Cerep Bioprint radioligand binding assay: 5-HT7; settings: read-out: percent inhibition of the binding of a radiolabeled ligand
[28] = biological target: choline transporter (CHT-1) (Homo sapiens, UniProt Q9GZV3); assay: Cerep Bioprint radioligand binding assay: CHT-1; settings: viloxazine 10 µM
5-HT2B [29] = biological target: T5, 5-HT2B; assay: Cerep Bioprint radioligand binding assay: 5-HT2B
[30] = biological target: adrenergic alpha1A (ADRα1A) receptor (Homo sapiens, UniProt P35348); assay: Cerep Bioprint radioligand binding assay: ADRα1A; settings: read-out: percent inhibition of the binding of a radiolabeled ligand
[31] = biological target: adrenergic alpha1B (ADRα1B) receptor (Homo sapiens, UniProt P35368); assay: Cerep Bioprint radioligand binding assay: ADRα1B; settings: read-out: percent inhibition of the binding of a radiolabeled ligand
DA in the striatum = settings: freely moving spontaneously hypertensive rats; cited from earlier work

T5 sequence (P41595 whole entry): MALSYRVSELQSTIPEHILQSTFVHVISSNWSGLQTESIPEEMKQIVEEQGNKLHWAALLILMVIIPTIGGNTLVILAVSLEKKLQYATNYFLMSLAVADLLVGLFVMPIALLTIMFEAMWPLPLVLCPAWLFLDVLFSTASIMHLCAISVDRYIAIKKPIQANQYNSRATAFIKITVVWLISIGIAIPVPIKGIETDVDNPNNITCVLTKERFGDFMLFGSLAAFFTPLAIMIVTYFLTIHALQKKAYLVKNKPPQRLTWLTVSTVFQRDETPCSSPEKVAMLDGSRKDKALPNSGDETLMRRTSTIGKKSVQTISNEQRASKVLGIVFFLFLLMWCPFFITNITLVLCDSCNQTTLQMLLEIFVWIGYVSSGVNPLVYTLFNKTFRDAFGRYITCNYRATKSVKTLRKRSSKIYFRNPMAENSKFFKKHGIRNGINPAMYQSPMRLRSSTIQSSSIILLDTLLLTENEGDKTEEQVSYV
NET (Rattus norvegicus, UniProt Q63380), sequence (Q63380 1-617): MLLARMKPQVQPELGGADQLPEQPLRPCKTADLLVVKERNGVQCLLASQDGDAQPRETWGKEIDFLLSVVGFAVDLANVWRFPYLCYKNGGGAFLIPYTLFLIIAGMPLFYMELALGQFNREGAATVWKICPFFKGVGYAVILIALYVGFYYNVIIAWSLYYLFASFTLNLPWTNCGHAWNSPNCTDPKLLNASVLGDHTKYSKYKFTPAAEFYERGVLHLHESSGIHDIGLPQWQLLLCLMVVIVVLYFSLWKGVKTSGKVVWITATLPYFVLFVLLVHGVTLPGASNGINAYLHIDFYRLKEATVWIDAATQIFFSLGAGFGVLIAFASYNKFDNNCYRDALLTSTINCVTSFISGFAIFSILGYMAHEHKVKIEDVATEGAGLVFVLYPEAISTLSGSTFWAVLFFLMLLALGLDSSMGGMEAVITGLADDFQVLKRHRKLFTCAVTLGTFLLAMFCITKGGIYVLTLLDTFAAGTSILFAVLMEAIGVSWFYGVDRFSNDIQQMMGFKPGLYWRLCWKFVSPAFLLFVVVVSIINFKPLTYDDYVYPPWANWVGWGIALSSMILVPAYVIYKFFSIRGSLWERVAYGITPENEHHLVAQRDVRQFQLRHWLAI
cholinergic muscarinic receptor M1, sequence (P11229 whole entry): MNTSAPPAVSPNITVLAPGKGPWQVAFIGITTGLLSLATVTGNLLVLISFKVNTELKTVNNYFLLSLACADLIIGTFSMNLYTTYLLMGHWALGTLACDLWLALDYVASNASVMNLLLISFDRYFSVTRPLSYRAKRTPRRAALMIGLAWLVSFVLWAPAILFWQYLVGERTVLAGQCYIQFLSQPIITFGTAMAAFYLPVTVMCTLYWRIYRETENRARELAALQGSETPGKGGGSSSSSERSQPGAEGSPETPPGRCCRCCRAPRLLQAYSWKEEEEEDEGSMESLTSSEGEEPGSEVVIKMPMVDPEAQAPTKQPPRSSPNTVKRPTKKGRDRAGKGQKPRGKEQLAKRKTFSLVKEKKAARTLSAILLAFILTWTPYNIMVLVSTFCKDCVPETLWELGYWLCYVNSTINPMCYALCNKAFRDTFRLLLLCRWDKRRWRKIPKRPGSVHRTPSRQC
cholinergic muscarinic receptor M3, sequence (P20309 whole entry): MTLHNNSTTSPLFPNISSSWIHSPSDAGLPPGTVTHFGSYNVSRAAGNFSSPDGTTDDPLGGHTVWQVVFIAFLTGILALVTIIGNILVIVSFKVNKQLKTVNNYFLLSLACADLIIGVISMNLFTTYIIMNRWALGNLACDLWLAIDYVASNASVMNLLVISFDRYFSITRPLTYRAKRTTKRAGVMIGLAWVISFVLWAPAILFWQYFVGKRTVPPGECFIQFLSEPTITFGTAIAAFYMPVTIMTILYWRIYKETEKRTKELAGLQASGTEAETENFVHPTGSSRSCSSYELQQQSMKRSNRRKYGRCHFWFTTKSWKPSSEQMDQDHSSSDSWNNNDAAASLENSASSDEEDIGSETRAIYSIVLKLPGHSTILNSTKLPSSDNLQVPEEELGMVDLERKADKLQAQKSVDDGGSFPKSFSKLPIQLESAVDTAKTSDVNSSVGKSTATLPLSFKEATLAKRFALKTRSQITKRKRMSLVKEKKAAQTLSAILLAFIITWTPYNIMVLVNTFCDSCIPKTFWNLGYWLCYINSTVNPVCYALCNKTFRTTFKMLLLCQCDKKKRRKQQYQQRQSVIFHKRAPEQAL
T2 sequence (P28223 whole entry, species assumed): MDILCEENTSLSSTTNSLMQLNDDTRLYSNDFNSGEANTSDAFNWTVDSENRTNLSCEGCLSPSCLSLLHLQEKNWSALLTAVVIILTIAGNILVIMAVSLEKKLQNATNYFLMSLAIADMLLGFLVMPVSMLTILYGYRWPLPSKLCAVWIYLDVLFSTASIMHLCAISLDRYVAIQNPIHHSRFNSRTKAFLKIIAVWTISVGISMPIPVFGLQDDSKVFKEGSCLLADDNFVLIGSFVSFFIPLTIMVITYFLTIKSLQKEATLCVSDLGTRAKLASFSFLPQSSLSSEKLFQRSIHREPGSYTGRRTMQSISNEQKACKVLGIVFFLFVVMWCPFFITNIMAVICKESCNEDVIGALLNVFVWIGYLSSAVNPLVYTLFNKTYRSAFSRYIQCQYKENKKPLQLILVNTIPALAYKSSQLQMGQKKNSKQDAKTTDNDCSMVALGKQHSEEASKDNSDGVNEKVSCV
dopaminergic receptor D1, sequence (P21728 whole entry): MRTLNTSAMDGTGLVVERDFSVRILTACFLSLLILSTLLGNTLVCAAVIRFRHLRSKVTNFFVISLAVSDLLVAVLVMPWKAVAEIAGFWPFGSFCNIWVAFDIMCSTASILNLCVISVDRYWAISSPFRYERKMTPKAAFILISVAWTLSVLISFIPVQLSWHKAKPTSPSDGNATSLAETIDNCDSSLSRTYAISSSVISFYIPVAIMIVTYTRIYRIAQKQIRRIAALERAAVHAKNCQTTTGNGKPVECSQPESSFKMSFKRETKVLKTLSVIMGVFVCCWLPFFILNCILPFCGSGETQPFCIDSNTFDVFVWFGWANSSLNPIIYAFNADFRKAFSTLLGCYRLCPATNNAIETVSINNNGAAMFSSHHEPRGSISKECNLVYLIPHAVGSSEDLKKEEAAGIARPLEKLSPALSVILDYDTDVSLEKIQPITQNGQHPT
dopaminergic receptor D3, sequence (P35462 whole entry): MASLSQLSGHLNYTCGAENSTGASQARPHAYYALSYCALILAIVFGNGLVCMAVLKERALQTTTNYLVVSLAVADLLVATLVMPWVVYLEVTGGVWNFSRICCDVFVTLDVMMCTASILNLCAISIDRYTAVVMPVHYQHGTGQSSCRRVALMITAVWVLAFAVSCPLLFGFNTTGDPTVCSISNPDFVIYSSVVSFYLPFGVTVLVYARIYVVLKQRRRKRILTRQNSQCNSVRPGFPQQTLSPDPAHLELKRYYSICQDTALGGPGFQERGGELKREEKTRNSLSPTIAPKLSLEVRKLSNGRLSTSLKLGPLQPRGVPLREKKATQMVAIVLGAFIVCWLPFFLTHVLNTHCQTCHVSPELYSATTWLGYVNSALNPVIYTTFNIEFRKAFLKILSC
histaminic receptor H1, sequence (P35367 whole entry): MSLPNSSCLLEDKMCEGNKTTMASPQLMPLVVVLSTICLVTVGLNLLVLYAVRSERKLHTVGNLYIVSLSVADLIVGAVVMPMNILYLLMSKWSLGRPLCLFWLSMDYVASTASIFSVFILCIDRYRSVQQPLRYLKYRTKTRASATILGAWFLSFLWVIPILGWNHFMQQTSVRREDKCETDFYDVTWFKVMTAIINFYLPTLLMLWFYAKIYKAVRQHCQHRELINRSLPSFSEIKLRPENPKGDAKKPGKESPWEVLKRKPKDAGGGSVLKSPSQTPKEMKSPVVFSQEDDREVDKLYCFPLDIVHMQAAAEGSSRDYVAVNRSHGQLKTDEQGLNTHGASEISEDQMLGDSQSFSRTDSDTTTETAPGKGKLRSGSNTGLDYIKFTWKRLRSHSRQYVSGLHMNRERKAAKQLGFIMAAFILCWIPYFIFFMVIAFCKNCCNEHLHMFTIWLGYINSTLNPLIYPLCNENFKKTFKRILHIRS
T4 sequence (P28335 33-458): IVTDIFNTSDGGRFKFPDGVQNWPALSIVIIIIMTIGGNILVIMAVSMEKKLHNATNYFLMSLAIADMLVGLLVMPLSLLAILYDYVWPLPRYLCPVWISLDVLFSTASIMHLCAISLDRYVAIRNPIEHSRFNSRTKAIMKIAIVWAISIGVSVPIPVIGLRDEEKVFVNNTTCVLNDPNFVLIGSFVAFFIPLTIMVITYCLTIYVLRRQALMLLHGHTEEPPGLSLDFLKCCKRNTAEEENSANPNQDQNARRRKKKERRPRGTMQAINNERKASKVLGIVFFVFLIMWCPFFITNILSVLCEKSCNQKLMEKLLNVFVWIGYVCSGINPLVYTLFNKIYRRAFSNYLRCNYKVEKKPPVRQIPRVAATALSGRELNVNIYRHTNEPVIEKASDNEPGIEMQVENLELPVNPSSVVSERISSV
cholinergic muscarinic receptor M4, sequence (P08173 whole entry): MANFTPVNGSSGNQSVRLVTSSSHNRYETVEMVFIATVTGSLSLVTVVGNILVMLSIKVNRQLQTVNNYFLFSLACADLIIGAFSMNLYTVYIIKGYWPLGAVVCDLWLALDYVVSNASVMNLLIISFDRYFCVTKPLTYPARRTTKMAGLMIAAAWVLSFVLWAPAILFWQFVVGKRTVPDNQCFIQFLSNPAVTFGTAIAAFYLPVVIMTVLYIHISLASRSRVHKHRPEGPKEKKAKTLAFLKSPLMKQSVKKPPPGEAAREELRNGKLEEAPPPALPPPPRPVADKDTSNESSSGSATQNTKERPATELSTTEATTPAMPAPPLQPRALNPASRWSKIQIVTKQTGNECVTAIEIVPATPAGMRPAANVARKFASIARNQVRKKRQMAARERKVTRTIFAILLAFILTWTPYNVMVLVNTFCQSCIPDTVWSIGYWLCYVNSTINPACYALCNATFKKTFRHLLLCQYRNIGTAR
muscarinic cholinergic receptor M1, sequence (P11229 whole entry): as the sequence (P11229 whole entry) above
muscarinic cholinergic receptor M3, sequence (P20309 whole entry): as the sequence (P20309 whole entry) above
DA receptor D1, sequence (P21728 whole entry): as the sequence (P21728 whole entry) above

SMILES: CNCC[C@@H](Oc1ccccc1C)c1ccccc1 [Atomoxetine, atomoxetine]
- effect on 5-HT in rat and mouse PFC by microdialysis [1]: not found to functionally increase 5-HT
- SERT occupancy (SERT [2]): > 85%
- affinity for neuronal receptors (neuronal receptors): does not possess appreciable affinity

SMILES: CCOc1ccccc1OCC1CNCCO1 (centres unmarked) [Viloxazine, Viloxazine hydrochloride]
- percent inhibition of the binding of a radiolabeled ligand (5-HT1B [3]): > 50%
- agonistic effect at 5-HT2A (5-HT2A [4]): no agonistic effect
- agonistic activity at 5-HT7 (5-HT7 [5]): no agonistic activity
- agonistic or antagonistic activity towards 5-HT1A (5-HT1A): did not show any significant agonistic or antagonistic activity
- agonistic or antagonistic activity towards 5-HT1B (5-HT1B [6]): did not show any significant agonistic or antagonistic activity
- agonistic or antagonistic activity towards 5-HT1D (5-HT1D): did not show any significant agonistic or antagonistic activity
- agonistic or antagonistic activity towards 5-HT6 (5-HT6): did not show any significant agonistic or antagonistic activity
- agonistic or antagonistic activity towards ADRα1A (ADRα1A): either very weak (IC50 > 150 µM) or no significant agonistic or antagonistic activity
- agonistic or antagonistic activity towards ADRα2A (ADRα2A): either very weak (IC50 > 150 µM) or no significant agonistic or antagonistic activity
- agonistic or antagonistic activity towards ADRα2B (ADRα2B): either very weak (IC50 > 150 µM) or no significant agonistic or antagonistic activity
- agonistic or antagonistic activity towards ADRα2C (ADRα2C): either very weak (IC50 > 150 µM) or no significant agonistic or antagonistic activity
- agonistic or antagonistic activity towards ADRβ1 (ADRβ1): either very weak (IC50 > 150 µM) or no significant agonistic or antagonistic activity
- antagonistic activity towards D1 (dopaminergic receptor D1): either very weak (IC50 > 150 µM) or no antagonistic activity
- agonistic activity towards D1 (dopaminergic receptor D1; concentrations up to 300 µM): no significant agonistic activity
- antagonistic activity towards D2S [7]: either very weak (IC50 > 150 µM) or no antagonistic activity
- agonistic activity towards D2S ([7]; concentrations up to 300 µM): no significant agonistic activity
- antagonistic activity towards D3 (dopaminergic receptor D3): either very weak (IC50 > 150 µM) or no antagonistic activity
- agonistic activity towards D3 (dopaminergic receptor D3; concentrations up to 300 µM): no significant agonistic activity
- antagonistic activity towards H1 (histaminic receptor H1): either very weak (IC50 > 150 µM) or no antagonistic activity
- agonistic activity towards H1 (histaminic receptor H1; concentrations up to 300 µM): no significant agonistic activity
- antagonistic activity towards M1 [8]: either very weak (IC50 > 150 µM) or no antagonistic activity
- agonistic activity towards M1 ([8]; concentrations up to 300 µM): no significant agonistic activity
- antagonistic activity towards M3 [9]: either very weak (IC50 > 150 µM) or no antagonistic activity
- agonistic activity towards M3 ([9]; concentrations up to 300 µM): no significant agonistic activity
- antagonistic activity towards M4 [10]: either very weak (IC50 > 150 µM) or no antagonistic activity
- agonistic activity towards M4 ([10]; concentrations up to 300 µM): no significant agonistic activity
- change in extracellular level of ACh [11]: No significant changes
- change in extracellular level of GABA [11]: No significant changes
- change in extracellular level of Glu [11]: No significant changes
- change in extracellular level of His [11]: No significant changes
- calculated 5-HT2B occupancy at clinical doses (5-HT2B [12]): higher than 80%
- calculated 5-HT2C occupancy at clinical doses (5-HT2C [13]): higher than 80%
- Emax (5-HT2C [14]): 78.6%
- IC50 (5-HT2B [15]): 27 µM
- IC50 (5-HT2A [16]): > 300 µM
- inhibition at 100 µM (5-HT7 [17]): 52%
- IC50 (ADRβ2): 68 µM
- IC50 (ADRα1B): 93 µM
- inhibition at 10 µM (5-HT2C [18]): > 50%
- IC50 (NET [19]): 0.26 µM and ~0.3 µM
- inhibition at 10 µM [20]: ~10%
- inhibition at 10 µM (DA receptor D1): < 25%
- inhibition at 10 µM (DA receptor D3): < 25%
- inhibition at 10 µM (His receptor H1): < 25%
- inhibition at 10 µM (His receptor H2): < 25%
- inhibition at 10 µM [21]: < 25%
- inhibition at 10 µM [22]: < 25%
- inhibition at 10 µM [23]: < 25%
- inhibition at 10 µM [24]: < 25%
- inhibition at 10 µM (NET [25]): > 50%
- inhibition at 10 µM (DA receptor D2S): < 25%
- inhibition at 10 µM (DAT): ~10%
- binding to the GABA transporter (GAT) (GABA transporter (GAT)): negligible binding
- binding to SERT (SERT [26]): negligible binding
- inhibition at 10 µM (5-HT7 [27]): > 50%
- binding to the choline transporter (CHT-1) [28]: negligible binding
- Ki (5-HT2B [29]; Ki for 5-HT2B, constant of binding used for receptor occupancy): 6.4 µM
- inhibition at 10 µM (5-HT2B [29]; read-out: percent inhibition of the binding of a radiolabeled ligand): > 50%
- inhibition at 10 µM [30]: > 50%
- inhibition at 10 µM [31]: > 50%

SMILES: C[C@H](N)Cc1ccccc1 [d-amphetamine]
- increase of DA from the baseline level in the striatum (DA in the striatum): 700%

SMILES: C[C@@H](N)Cc1ccccc1 [l-amphetamine]
- increase of DA from the baseline level in the striatum (DA in the striatum): 1,200%

Source: article PMC7473988 (Journal of Experimental Pharmacology, 2020)
